Converted amounts (≈) assume the structure as drawn.
System: not listed separately
Assay: Antimitotic activity against rat ASK cells assessed as reversal of astrocyte morphology at 0.032 ug/ml
Format: functional
Details: not given

SMILES | Activity
COc1cc2c(c(OC)c1OC)C[C@H]1COC(=O)[C@@H]1Cc1c-2cc(OC)c(OC)c1OC [STEGANOLIDE A] | 0%

System: SK-MEL-2
Assay: Cytotoxicity against human SK-MEL-2 cells
Format: functional
Details: read-out: ED50 (the source's name)

SMILES | EC50
COC[C@@H]1Cc2cc3c(cc2-c2c(ccc(OC)c2OC)C[C@@H]1C(=O)OC)OCO3 | > 20 µg/mL
COC[C@@H]1Cc2cc3c(cc2-c2c(c(OC)cc(OC)c2OC)C[C@H]1C(=O)OC)OCO3 | 14.9 µg/mL (≈ 33.5 µM)
C/C=C(/C)C(=O)O[C@@H]1c2cc3c(cc2-c2c(cc(OC)c(OC)c2OC)C[C@H]2C(=O)OC[C@H]12)OCO3 [EPISTEGANANGIN] | 20 µg/mL (≈ 40.3 µM)
COc1cc2c(c(OC)c1OC)C[C@H]1COC(=O)[C@@H]1Cc1c-2cc(OC)c(OC)c1OC [STEGANOLIDE A] | 9.2 µg/mL (≈ 20.7 µM)

System: not listed separately
Assay: Antimitotic activity against rat ASK cells assessed as reversal of astrocyte morphology at 0.8 ug/ml
Format: functional
Details: not given

SMILES | Activity
COC[C@@H]1Cc2cc3c(cc2-c2c(ccc(OC)c2OC)C[C@@H]1C(=O)OC)OCO3 | 0%
C/C=C(/C)C(=O)O[C@@H]1c2cc3c(cc2-c2c(cc(OC)c(OC)c2OC)C[C@H]2C(=O)OC[C@H]12)OCO3 [EPISTEGANANGIN] | 0%
COc1cc2c(c(OC)c1OC)C[C@H]1COC(=O)[C@@H]1Cc1c-2cc(OC)c(OC)c1OC [STEGANOLIDE A] | 0%

System: not listed separately
Assay: Cytotoxicity against human BC1 cells
Format: functional
Details: read-out: ED50 (the source's name)

SMILES | EC50
COC[C@@H]1Cc2cc3c(cc2-c2c(ccc(OC)c2OC)C[C@@H]1C(=O)OC)OCO3 | > 20 µg/mL
COC[C@@H]1Cc2cc3c(cc2-c2c(c(OC)cc(OC)c2OC)C[C@H]1C(=O)OC)OCO3 | 17.3 µg/mL (≈ 38.9 µM)
C/C=C(/C)C(=O)O[C@@H]1c2cc3c(cc2-c2c(cc(OC)c(OC)c2OC)C[C@H]2C(=O)OC[C@H]12)OCO3 [EPISTEGANANGIN] | 1.1 µg/mL (≈ 2.22 µM)
COc1cc2c(c(OC)c1OC)C[C@H]1COC(=O)[C@@H]1Cc1c-2cc(OC)c(OC)c1OC [STEGANOLIDE A] | 8 µg/mL (≈ 18 µM)

System: not listed separately
Assay: Antimitotic activity against rat ASK cells assessed as reversal of astrocyte morphology at 4 ug/ml
Format: functional
Details: not given

SMILES | Activity
COC[C@@H]1Cc2cc3c(cc2-c2c(ccc(OC)c2OC)C[C@@H]1C(=O)OC)OCO3 | 0%
COC[C@@H]1Cc2cc3c(cc2-c2c(c(OC)cc(OC)c2OC)C[C@H]1C(=O)OC)OCO3 | 0%
C/C=C(/C)C(=O)O[C@@H]1c2cc3c(cc2-c2c(cc(OC)c(OC)c2OC)C[C@H]2C(=O)OC[C@H]12)OCO3 [EPISTEGANANGIN] | 0%
COc1cc2c(c(OC)c1OC)C[C@H]1COC(=O)[C@@H]1Cc1c-2cc(OC)c(OC)c1OC [STEGANOLIDE A] | 0%

Species on record: Bos taurus
Assay: Inhibition of calf thymus tubulin polymerization by turbidimetric analysis
Details: not given

SMILES | ED50
COC[C@@H]1Cc2cc3c(cc2-c2c(ccc(OC)c2OC)C[C@@H]1C(=O)OC)OCO3 | 76.9 µg/mL (≈ 186 µM)
COC[C@@H]1Cc2cc3c(cc2-c2c(c(OC)cc(OC)c2OC)C[C@H]1C(=O)OC)OCO3 | 59.3 µg/mL (≈ 133 µM)

System: KB
Assay: Cytotoxicity against human KB cells
Format: functional
Details: read-out: ED50 (the source's name)

SMILES | EC50
COC[C@@H]1Cc2cc3c(cc2-c2c(ccc(OC)c2OC)C[C@@H]1C(=O)OC)OCO3 | > 20 µg/mL
COC[C@@H]1Cc2cc3c(cc2-c2c(c(OC)cc(OC)c2OC)C[C@H]1C(=O)OC)OCO3 | 9.2 µg/mL (≈ 20.7 µM)
C/C=C(/C)C(=O)O[C@@H]1c2cc3c(cc2-c2c(cc(OC)c(OC)c2OC)C[C@H]2C(=O)OC[C@H]12)OCO3 [EPISTEGANANGIN] | 7.4 µg/mL (≈ 14.9 µM)
COc1cc2c(c(OC)c1OC)C[C@H]1COC(=O)[C@@H]1Cc1c-2cc(OC)c(OC)c1OC [STEGANOLIDE A] | 4.9 µg/mL (≈ 11 µM)

System: Lu1
Assay: Cytotoxicity against human Lu1 cells
Format: functional
Details: read-out: ED50 (the source's name)

SMILES | EC50
COC[C@@H]1Cc2cc3c(cc2-c2c(ccc(OC)c2OC)C[C@@H]1C(=O)OC)OCO3 | > 20 µg/mL
COC[C@@H]1Cc2cc3c(cc2-c2c(c(OC)cc(OC)c2OC)C[C@H]1C(=O)OC)OCO3 | 5.5 µg/mL (≈ 12.4 µM)
C/C=C(/C)C(=O)O[C@@H]1c2cc3c(cc2-c2c(cc(OC)c(OC)c2OC)C[C@H]2C(=O)OC[C@H]12)OCO3 [EPISTEGANANGIN] | 6.9 µg/mL (≈ 13.9 µM)
COc1cc2c(c(OC)c1OC)C[C@H]1COC(=O)[C@@H]1Cc1c-2cc(OC)c(OC)c1OC [STEGANOLIDE A] | 5.5 µg/mL (≈ 12.4 µM)

Species on record: Bos taurus
Assay: Inhibition of calf brain tubulin polymerization by turbidimetric analysis
Details: not given

SMILES | ED50
C/C=C(/C)C(=O)O[C@@H]1c2cc3c(cc2-c2c(cc(OC)c(OC)c2OC)C[C@H]2C(=O)OC[C@H]12)OCO3 [EPISTEGANANGIN] | 78.1 µg/mL (≈ 157 µM)

System: not listed separately
Assay: Antimitotic activity against rat ASK cells assessed as reversal of astrocyte morphology at 100 ug/ml
Format: functional
Details: not given

SMILES | Activity
COC[C@@H]1Cc2cc3c(cc2-c2c(ccc(OC)c2OC)C[C@@H]1C(=O)OC)OCO3 | 40%
COC[C@@H]1Cc2cc3c(cc2-c2c(c(OC)cc(OC)c2OC)C[C@H]1C(=O)OC)OCO3 | 100%
C/C=C(/C)C(=O)O[C@@H]1c2cc3c(cc2-c2c(cc(OC)c(OC)c2OC)C[C@H]2C(=O)OC[C@H]12)OCO3 [EPISTEGANANGIN] | 100%
COc1cc2c(c(OC)c1OC)C[C@H]1COC(=O)[C@@H]1Cc1c-2cc(OC)c(OC)c1OC [STEGANOLIDE A] | 100%

System: not listed separately
Assay: Cytotoxicity against multidrug-resistant human KBV1 cells
Format: functional
Details: KB-V1, read-out: ED50 (the source's name)

SMILES | EC50
COC[C@@H]1Cc2cc3c(cc2-c2c(ccc(OC)c2OC)C[C@@H]1C(=O)OC)OCO3 | > 20 µg/mL
COC[C@@H]1Cc2cc3c(cc2-c2c(c(OC)cc(OC)c2OC)C[C@H]1C(=O)OC)OCO3 | 0.8 µg/mL (≈ 1.8 µM)
C/C=C(/C)C(=O)O[C@@H]1c2cc3c(cc2-c2c(cc(OC)c(OC)c2OC)C[C@H]2C(=O)OC[C@H]12)OCO3 [EPISTEGANANGIN] | 0.9 µg/mL (≈ 1.81 µM)
COc1cc2c(c(OC)c1OC)C[C@H]1COC(=O)[C@@H]1Cc1c-2cc(OC)c(OC)c1OC [STEGANOLIDE A] | 0.8 µg/mL (≈ 1.8 µM)

System: LNCaP
Assay: Cytotoxicity against human LNCAP cells
Format: functional
Details: read-out: ED50 (the source's name)

SMILES | EC50
COC[C@@H]1Cc2cc3c(cc2-c2c(ccc(OC)c2OC)C[C@@H]1C(=O)OC)OCO3 | > 20 µg/mL
COC[C@@H]1Cc2cc3c(cc2-c2c(c(OC)cc(OC)c2OC)C[C@H]1C(=O)OC)OCO3 | > 20 µg/mL
C/C=C(/C)C(=O)O[C@@H]1c2cc3c(cc2-c2c(cc(OC)c(OC)c2OC)C[C@H]2C(=O)OC[C@H]12)OCO3 [EPISTEGANANGIN] | > 20 µg/mL
COc1cc2c(c(OC)c1OC)C[C@H]1COC(=O)[C@@H]1Cc1c-2cc(OC)c(OC)c1OC [STEGANOLIDE A] | 9 µg/mL (≈ 20.2 µM)

System: ZR-75-1
Assay: Cytotoxicity against human ZR-75-1 cells
Format: functional
Details: read-out: ED50 (the source's name)

SMILES | EC50
COC[C@@H]1Cc2cc3c(cc2-c2c(ccc(OC)c2OC)C[C@@H]1C(=O)OC)OCO3 | > 20 µg/mL
COC[C@@H]1Cc2cc3c(cc2-c2c(c(OC)cc(OC)c2OC)C[C@H]1C(=O)OC)OCO3 | 4.7 µg/mL (≈ 10.6 µM)
C/C=C(/C)C(=O)O[C@@H]1c2cc3c(cc2-c2c(cc(OC)c(OC)c2OC)C[C@H]2C(=O)OC[C@H]12)OCO3 [EPISTEGANANGIN] | 13.9 µg/mL (≈ 28 µM)
COc1cc2c(c(OC)c1OC)C[C@H]1COC(=O)[C@@H]1Cc1c-2cc(OC)c(OC)c1OC [STEGANOLIDE A] | 8.9 µg/mL (≈ 20 µM)

System: Col2
Assay: Cytotoxicity against human Col2 cells
Format: functional
Details: read-out: ED50 (the source's name)

SMILES | EC50
COC[C@@H]1Cc2cc3c(cc2-c2c(ccc(OC)c2OC)C[C@@H]1C(=O)OC)OCO3 | > 20 µg/mL
COC[C@@H]1Cc2cc3c(cc2-c2c(c(OC)cc(OC)c2OC)C[C@H]1C(=O)OC)OCO3 | 9.6 µg/mL (≈ 21.6 µM)
C/C=C(/C)C(=O)O[C@@H]1c2cc3c(cc2-c2c(cc(OC)c(OC)c2OC)C[C@H]2C(=O)OC[C@H]12)OCO3 [EPISTEGANANGIN] | > 20 µg/mL
COc1cc2c(c(OC)c1OC)C[C@H]1COC(=O)[C@@H]1Cc1c-2cc(OC)c(OC)c1OC [STEGANOLIDE A] | 5.1 µg/mL (≈ 11.5 µM)

System: HT
Assay: Cytotoxicity against human HT cells
Format: functional
Details: read-out: ED50 (the source's name)

SMILES | EC50
COC[C@@H]1Cc2cc3c(cc2-c2c(ccc(OC)c2OC)C[C@@H]1C(=O)OC)OCO3 | > 20 µg/mL
COC[C@@H]1Cc2cc3c(cc2-c2c(c(OC)cc(OC)c2OC)C[C@H]1C(=O)OC)OCO3 | 11.5 µg/mL (≈ 25.9 µM)
C/C=C(/C)C(=O)O[C@@H]1c2cc3c(cc2-c2c(cc(OC)c(OC)c2OC)C[C@H]2C(=O)OC[C@H]12)OCO3 [EPISTEGANANGIN] | 7.4 µg/mL (≈ 14.9 µM)
COc1cc2c(c(OC)c1OC)C[C@H]1COC(=O)[C@@H]1Cc1c-2cc(OC)c(OC)c1OC [STEGANOLIDE A] | 6.5 µg/mL (≈ 14.6 µM)

System: not listed separately
Assay: Antimitotic activity against rat ASK cells assessed as reversal of astrocyte morphology at 0.16 ug/ml
Format: functional
Details: not given

SMILES | Activity
COc1cc2c(c(OC)c1OC)C[C@H]1COC(=O)[C@@H]1Cc1c-2cc(OC)c(OC)c1OC [STEGANOLIDE A] | 0%

System: A-431
Assay: Cytotoxicity against human A431 cells
Format: functional
Details: read-out: ED50 (the source's name)

SMILES | EC50
COC[C@@H]1Cc2cc3c(cc2-c2c(ccc(OC)c2OC)C[C@@H]1C(=O)OC)OCO3 | > 20 µg/mL
COC[C@@H]1Cc2cc3c(cc2-c2c(c(OC)cc(OC)c2OC)C[C@H]1C(=O)OC)OCO3 | 6.7 µg/mL (≈ 15.1 µM)
C/C=C(/C)C(=O)O[C@@H]1c2cc3c(cc2-c2c(cc(OC)c(OC)c2OC)C[C@H]2C(=O)OC[C@H]12)OCO3 [EPISTEGANANGIN] | > 20 µg/mL
COc1cc2c(c(OC)c1OC)C[C@H]1COC(=O)[C@@H]1Cc1c-2cc(OC)c(OC)c1OC [STEGANOLIDE A] | 5.5 µg/mL (≈ 12.4 µM)

System: not listed separately
Assay: Cytotoxicity against human U373 cells
Format: functional, U-373MG ATCC
Details: U373 MG, read-out: ED50 (the source's name)

SMILES | EC50
COC[C@@H]1Cc2cc3c(cc2-c2c(ccc(OC)c2OC)C[C@@H]1C(=O)OC)OCO3 | > 20 µg/mL
COC[C@@H]1Cc2cc3c(cc2-c2c(c(OC)cc(OC)c2OC)C[C@H]1C(=O)OC)OCO3 | 7.8 µg/mL (≈ 17.5 µM)
C/C=C(/C)C(=O)O[C@@H]1c2cc3c(cc2-c2c(cc(OC)c(OC)c2OC)C[C@H]2C(=O)OC[C@H]12)OCO3 [EPISTEGANANGIN] | > 20 µg/mL
COc1cc2c(c(OC)c1OC)C[C@H]1COC(=O)[C@@H]1Cc1c-2cc(OC)c(OC)c1OC [STEGANOLIDE A] | 3.1 µg/mL (≈ 6.97 µM)

System: not listed separately
Assay: Antimitotic activity against rat ASK cells assessed as reversal of astrocyte morphology at 20 ug/ml
Format: functional
Details: not given

SMILES | Activity
COC[C@@H]1Cc2cc3c(cc2-c2c(ccc(OC)c2OC)C[C@@H]1C(=O)OC)OCO3 | 0%
COC[C@@H]1Cc2cc3c(cc2-c2c(c(OC)cc(OC)c2OC)C[C@H]1C(=O)OC)OCO3 | 100%
C/C=C(/C)C(=O)O[C@@H]1c2cc3c(cc2-c2c(cc(OC)c(OC)c2OC)C[C@H]2C(=O)OC[C@H]12)OCO3 [EPISTEGANANGIN] | 0%
COc1cc2c(c(OC)c1OC)C[C@H]1COC(=O)[C@@H]1Cc1c-2cc(OC)c(OC)c1OC [STEGANOLIDE A] | 100%

— ChEMBL document CHEMBL1147400, “Novel antimitotic dibenzocyclo-octadiene lignan constituents of the stem bark of Steganotaenia araliacea” (1993)
